Literature values in patent US20040091555A1 (priority 2003, published 2004).

Test system: hepatocellular carcinoma
Settings: phase II clinical trials, patients with hepatocellular carcinoma

In the case of `CC(=O)O[C@H]1C(=O)[C@@]2(C)[C@H]([C@H](OC(=O)c3ccccc3)[C@]3(O)C[C@H](OC(=O)[C@H](O)[C@@H](NC(=O)c4ccccc4)c4ccccc4)C(C)=C1C3(C)C)[C@]1(OC(C)=O)CO[C@@H]1C[C@@H]2O` [paclitaxel], the “efficacy on hepatocellular carcinoma” value is given as “no significant efficacy on hepatocellular carcinoma”.
